According to patent publication US20170137481A1, “Use of Cell-Permeable Peptide Inhibitors of the JNK Signal Transduction Pathway for the Treatment of Various Diseases” (Xigen Inflammation Ltd., priority 2014, published 2017):
Marks after values point to notes of the source that are not given here.

How the values were obtained:
[1] = system: patients who underwent complex ocular surgery; test: Phase II post-surgery intraocular inflammation, safety
Source text: The criteria for evaluation of safety were:
An AE is therefore any unfavorable and unintended sign, symptom or disease temporally associated with the use of a medicinal product, whether or not considered related to the medicinal product.
The present study was a double-blind study. All patients who were randomized and for whom the sub-conjunctival injection was started are included in the safety analysis by dose group. […] If the study treatment eye drops were stopped prematurely (i.e. before day 21), the patients concerned continued follow-up until day 28, in accordance with the study protocol.
Investigators assessed (in a blinded manner) the relationship of each reported AE to any of the study treatments. An event was considered to be related to study treatment if the Investigator ticked either ‘possible’ or ‘probable’ as the reply to this question.

[2] = system: post-surgery intraocular inflammation; test: Phase II post-surgery intraocular inflammation, efficacy; format: in vivo, human; conditions: for Cleared ocular inflammation (cell grade 0 and flare grade 0): Yes: Dexamethasone
Description: The objectives of the present study were to evaluate the efficacy and safety of a single sub-conjunctival injection of XG-102 90 or 900 μg administered within maximally 3 hours after the end of the surgical procedure compared to dexamethasone eye drops administered 4 times/day for 21 days in post-operative intraocular inflammation.
In accordance with this trial's primary objective, the primary outcome was evaluated by the mean anterior chamber cells grade at day 28 post-administration of the sub-conjunctival injection of study treatment comparing XG-102 900 μg with dexamethasone eye drops.
The present trial was a randomized (1:1:1), controlled, double-blind, multicenter non-inferiority clinical trial with three parallel groups of equal size. Randomization, which was blocked by center, was performed using a web-based, secure, randomization system. Eligible patients were male or female (post-menopausal, or sterile by tubal ligation or hysterectomy), who were >18 years of age and who had undergone one of the following ocular surgeries: (a) anterior and posterior segment combined surgery which may include surgery for: cataract and retinal detachment, cataract and epimacular membrane and/or cataract and macular hole or (b) glaucoma surgery or (c) complex posterior segment surgery or (d) complicated intraocular surgery which may include cataract surgery associated with diabetic retinopathy and/or complicated retinal detachment ocular surgery. Patients were not eligible to participate if any of the following exclusion criteria was present at the moment of randomization:
The study protocol planned that 138 patients would be randomized and administered the sub-conjunctival injection of study treatment. […] Patients were randomly allocated to either XG-102 90 or 900 μg which was administered as a single, sub-conjunctival injection of 250 μl within maximally 3 hours after the end of the eye surgery or to dexamethasone eye drops, which were instilled 4 times per day for 21 days. The first study treatment eye drop was instilled within maximally 15 minutes after the sub-conjunctival injection of study treatment. In order to maintain the blinding, patients randomized to the XG-102 group received eye drops containing a NaCl 0.9% solution and patients randomized to the dexamethasone group were administered a sub-conjunctival injection containing NaCl 0.9%. Patients were followed for, in total, 28 (±5) days after administration of the sub-conjunctival injection of study treatment.
Patients were randomized to one of the three study groups: • 1. A single sub-conjunctival injection of XG-102 90 μg+placebo eye drops 4 times/day for 21 days or • 2. A single sub-conjunctival injection of XG-102 900 μg+placebo eye drops 4 times/day for 21 days or • 3. A single sub-conjunctival injection of NaCl 0.9%+dexamethasone eye drops 4 times/day for 21 days.
The primary objective was evaluated by the mean anterior chamber cells grade at day 28 post-administration of the sub-conjunctival administration of study treatment. The criteria for evaluation of the primary objective was
The ophthalmology examinations were performed at baseline (i.e. either on the day of surgery, but before the surgery was performed). […] In order to reduce operator variability, the sites were instructed that, where possible, the same operator should perform all ophthalmology examinations for the same patient throughout the trial. The ophthalmology measurements were performed in accordance with the study-specific instructions. The latter were reviewed and discussed with the site teams during the initiation visit and during each monitoring visit. For the determination of the cell/flare count and cell/flare grade, the SUN Working Group's consensus was used by the sites using the SUN Working group definitions (“Standardization of Uveitis Nomenclature for Reporting Clinical Data. Results of the First International Workshop.,” American Journal of Ophthalmology, vol 140, no. 3, pp. 509-516, 2005). […]

[3] = system: Endotoxin-Induced Uveitis in Lewis rats; test: Endotoxin-Induced Uveitis (EIU), action duration after subconjunctival administration; format: in vivo, rat
Source text: The aim of this study was to evaluate the duration of action of SDD-1002 following sub-conjunctival administration in a rat model of EIU.
90 male Lewis rats were used, age approximately 6-8 weeks (at the induction), 4 weeks (at the injection for the Day-28), 5 weeks (at the injection for the Day-21), 6 weeks (at the injection for the Day-14, Day-7 and for the Day 0), 7 weeks (at the injection for Day-2 and Day-1), and housed by five in standard cages. Animals were allocated to the following groups: Group No. Treatment Dose Time-point
Thus, each animal received a single subconjunctival injection of either XG-102 (20 μg/eye), saline (0.9% NaCl) vehicle control or Solumedrol® (20 μg/eye) into each eye. Methylprednisolone (Solumedrol®) is most commonly used in uveitis as sub-conjunctival treatment.
On Day 0, ocular inflammation was induced by a single footpad injection of liposaccharide (LPS, 1 mg/kg, 0.5 mL/kg Sigma # L6511) on anesthetized animals. LPS powder was reconstituted the day of induction. XG-102 was administered by a single injection (20 microgram/5 microL) in each eye on Day-28 or Day-21 or Day-14 or Day-7 or Day-2 or Day-1 or Day 0 (immediately before induction). Saline control and reference item (Solumedrol®; 20 μg/eye) were administered by a single injection in each eye on Day 0 (immediately before induction).
Animals were examined with a slit-lamp before XG-102 administration (baseline) before induction (Day 0) then 24 h after induction (Day 1). The inflammation was graded using a scoring system as described by Devos A., Van Haren M., Verhagen C., Hoek Zema R., Kijlstra A: Systemic anti-tumor necrosis factor antibody treatment exacerbates Endotoxin Induced Uveitis in the rat. Exp. Eye. Res. 1995; 61: 667-675. Briefly, flare, miosis and hypopion were scored for absence (0), or presence (1), iris hyperemia and cells in the anterior chamber were scored for absence (0), or mild (1) or severe presence (2). The maximum score (sum of the five parameter scores) was 7.
At the end of the evaluation (24 h after induction), animals were euthanized by intravenous injection of overdosed pentobarbital. The aqueous humor was collected immediately for each eye. For quantification of Cellular Infiltration in Aqueous Humor (AH), the sample was diluted 10-fold with PBS before detection. The number of infiltrated cells was manually counted after Giemsa staining under microscope.

[4] = system: light-induced photoreceptor cell death in Sprague-Dawley rats; test: Photoreceptor light damage in albino rat (ERG, ONL thickness); format: in vivo
Description: The aim of this study was to investigate the dose effect of XG-102 on light-induced photoreceptor cell death.
Test item (XG-102: 30 mg/ml, 3 mg/ml, and 0.3 mg/ml) and vehicle (0.9% NaCl) were administered by intravitreal injection in right eyes the day before induction. The reference (Phenyl-N-test-Butylnitrone (PBN) (50 mg/kg)) and vehicle were intraperitoneally injected 30 min before induction then, 3 times during 12 hours of light exposition, then once after induction. Animals were placed in constant light (7000 lux) for 24 h. Electroretinograms (ERG) were recorded before light treatment and on days 9, 16 and 23 after induction. Eyes were then taken for histology and outer nuclear layer (ONL) thickness assessment. The table below summarizes the allocation of animals in treatment groups:
For the intravitreal injection animals were anesthetized by intramuscular injection of a mixture of xylazine/ketamine. Test item (5 μl) and vehicle (5 μl) were injected in the right eye. The injection was performed under an operating microscope in the supratemporal area at pars plana using a 33G-needle mounted on a 50 μl Hamilton. The filled syringe was mounted into the UltraMicroPump III to achieve accurate injection in microliter range. Reference and vehicle were injected intraperitoneally at a dose volume of 2.5 ml/kg using a 30G-needle mounted on a 1 ml-syringe.
Light Exposure: The rats that had been dark-adapted overnight were exposed for 24 hours to a continuous white fluorescent light (7000 lx) in clear plastic cages. Each cage contained one rat. After exposure, the rats returned to rearing cyclic light conditions.
The body weight of all animals was recorded before the start of the study then at the end of the study. Each day, the general behavior and the aspect of all animals were observed. ERG was recorded before induction and 7, 14 and 21 days after cessation of exposure (Days 9, 16 and 23) on right eyes of dark-adapted and anesthezied animals. The latency times (for a- and b-wave) and the a-wave and b-wave amplitudes were measured for each ERG; the latency times were expressed as millisecond and the a-wave and b-wave as a percentage of the baseline value obtained before light exposure. 15 min before measurement 10 μl Mydriaticum® (0.5% tropicamide) were instilled for pupillary dilatation.
ERG Parameters: • Color: white maximum. • Maximum intensity: 2.6 cd.s/m^2 (0 dB); Duration 0.24 ms; number of flash: 1. • Filter: 50 Hz. • Impedence Threshold: 90 kΩ.
Measurement of the ONL Thickness: After ERG testing, animal was euthanized by an overdose of pentobarbital and the right eyes were enucleated, fixed and embedded in paraffin. Sections (5 μm thick) were performed along the vertical meridian and stained with Trichrome-Masson. The vertical meridian included the optic nerve.
Group mean values and standard deviation were calculated. A statistical Mann and Whitney test was used to evaluate the differences between pair-wise groups. For comparison between time-point into each vehicle groups, a Friedman test was used.

[5] = biological target: JNK of primary mouse cortical neuron cultures; test: cell-based or functional assay
[6] = Dexamethasone group, blinded assessment
[7] = 20 μg/eye, both eyes treated on the day of induction, 24 h after LPS
[8] = 20 μg/eye, both eyes treated on the day of induction, vs vehicle

C[C@@H]1C[C@H]2[C@@H]3CCC4=CC(=O)C=C[C@]4(C)[C@@]3(F)[C@@H](O)C[C@]2(C)[C@@]1(O)C(=O)CO [Dexamethasone, reference compound]
AEs possibly or probably related to study treatment as assessed by the Investigator ([1]; Dexamethasone (N = 50)): 15 Total # events
Adverse events which led to an interruption of study treatment ([1]; Dexamethasone dose group): 3 (5.5%) number of events (% of reported events)
Reported AEs by severity: Mild ([1]; Dexamethasone dose group): 42 (76.4%) number of events (%)
Reported AEs by severity: Moderate ([1]; Dexamethasone dose group): 9 (16.4%) number of events (%)
Reported AEs by severity: Severe ([1]; Dexamethasone dose group): 4 (7.3%) number of events (%)
AEs considered by the Investigator to be related to Dexamethasone [1, 6]: 2 (3.6%) # events (%)
AEs considered by the Investigator to be related to XG-102 [1, 6]: 13 (23.64%) # events (%)
AEs possibly or probably related to study medication ([1]; dexamethasone group): 15 events
Intraocular pressure increased, patients ([1]; dexamethasone group): 14%
events in SOC EYE DISORDERS ([1]; dexamethasone group): 30 events
events resulting in premature withdrawal of study treatment eye drops ([1]; dexamethasone group): 3 events
patients with SAE ([1]; dexamethasone group): 2 patients
patients with event in SOC EYE DISORDERS ([1]; dexamethasone group): 16 (32%)
percentage of patients with an AE within 24 hours after administration ([1]; dexamethasone group): 30%
total number of AEs reported ([1]; dexamethasone group): 55
Cleared ocular inflammation (cell grade 0 and flare grade 0): Yes ([2]; Visit 1 (21 hours), Full analysis population): 4 (8.2%) # patients (%)
Cleared ocular inflammation (cell grade 0 and flare grade 0): Yes ([2]; Visit 1 (21 hours), Per-protocol population): 4 (8.2%) # patients (%)
Cleared ocular inflammation (cell grade 0 and flare grade 0): Yes ([2]; Visit 2 (7 days), Full analysis population): 9 (18.8%) # patients (%)
Cleared ocular inflammation (cell grade 0 and flare grade 0): Yes ([2]; Visit 2 (7 days), Per-protocol population): 9 (18.8%) # patients (%)
Cleared ocular inflammation (cell grade 0 and flare grade 0): Yes ([2]; Visit 3 (14 days), Full analysis population): 10 (20.4%) # patients (%)
Cleared ocular inflammation (cell grade 0 and flare grade 0): Yes ([2]; Visit 3 (14 days), Per-protocol population): 10 (21.3%) # patients (%)
Cleared ocular inflammation (cell grade 0 and flare grade 0): Yes ([2]; Visit 4 (28 days), Full analysis population): 17 (35.4%) # patients (%)
Cleared ocular inflammation (cell grade 0 and flare grade 0): Yes ([2]; Visit 4 (28 days), Per-protocol population): 15 (34.9%) # patients (%)
percentage of patients for whom rescue medication was introduced ([2]; eye drops 4 times/day, 21 days): 4.0%

C[C@H]1C[C@@H]2[C@H]([C@@H](O)C[C@@]3(C)[C@H]2CC[C@]3(O)C(=O)CO)[C@@]2(C)C=CC(=O)C=C12 [methylprednisolone, Methylprednisolone]
clinical score, mean ([3]; 20 μg/eye on Day 0): 2.0±0.2
clinical score, median ([3]; 20 μg/eye on Day 0): 2
reduction of clinical score ([3]; 20 μg/eye on Day 0): 50%
EIU clinical score, Mean ± SEM (n = 20) [3, 7]: 2.0 ± 0.2
EIU clinical score, Median [3, 7]: 2.0
Inflammatory cells infiltrated into aqueous humor, Mean ± SEM (n = 20) [3, 7]: 3170 ± 276 cells/μL
Inflammatory cells infiltrated into aqueous humor, Median [3, 7]: 3385 cells/μL
Reduction of clinical scores [3, 8]: 50%
Reduction of leucocytes [3, 8]: 2%

CC(C)(C)[N+]([O-])=Cc1ccccc1 [PBN, Phenyl-N-tert-Butylnitrone, reference compound]
recovery of the a-wave (% of baseline) ([4]; 50 mg/kg i.p., Day 9): 70.4%
recovery of the b-wave (% of baseline) ([4]; 50 mg/kg i.p., Day 9): 100%
recovery of the a-wave (% of baseline) ([4]; 50 mg/kg i.p., Day 16): 79.6%
recovery of the b-wave (% of baseline) ([4]; 50 mg/kg i.p., Day 16): 103.6%
loss of mean ONL thickness versus untreated eyes ([4]; 50 mg/kg i.p., Day 23): 16%
recovery of the a-wave (% of baseline) ([4]; 50 mg/kg i.p., Day 23): 76.2%
recovery of the b-wave (% of baseline) ([4]; 50 mg/kg i.p., Day 23): 102.4%
ERG B-wave amplitude, percent of baseline, Mean ± SD ([4]; rat, in vivo, ip, 50 mg/kg): 100 ± 18.6%
ONL thickness ([4]; rat, in vivo, ip, 50 mg/kg): 34.05 ± 4.00 μm
ONL thickness Loss (% comparison with control non-induced eye) ([4]; rat, in vivo, ip, 50 mg/kg): 16%

D-TAT-IB1(s) (peptide)
JNK activation (immunoblot) in Aβ42-stressed PKR-/- cortical neurons; peptide at 10 µM [5]: -35%
JNK activity (pJNK/JNK ratio, immunoblot) in cortical neurons under H2O2 oxidative stress; peptide at 10 µM [5]: 45%
c-Jun phosphorylation (immunoblot) in Aβ42-stressed WT cortical neurons; peptide at 10 µM [5]: -74%
